The target of the experiment is T1, human FXR (Homo sapiens, UniProt Q96RI1).
T1 construct: expressed in transfected cells; host or cells: HEK293 cells stably carrying a 5xGal4-response-element firefly luciferase reporter, transiently transfected with pcDNA3.1-Gal4-FXR
T1 sequence (Q96RI1 262-486 limits assumed): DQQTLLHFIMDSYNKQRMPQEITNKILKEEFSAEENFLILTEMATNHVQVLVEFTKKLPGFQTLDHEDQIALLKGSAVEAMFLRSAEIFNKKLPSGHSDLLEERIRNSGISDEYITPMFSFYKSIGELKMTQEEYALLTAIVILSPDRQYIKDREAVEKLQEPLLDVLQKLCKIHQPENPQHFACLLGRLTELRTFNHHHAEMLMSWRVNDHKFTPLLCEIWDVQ
The experiment in a line: transient human FXR/Gal4-luciferase reporter assay. The format is cell-based. As to conditions: Gal4-hFXR transfected HEK293 reporter cells; relative to 8 μM GW-4064. As for the experimental part:
A Gal4-hFXR fusion construct reporter system was used as the primary assay to characterize compound activity. A construct including 5 copies of the Gal4 promoter response element upstream of a firefly luciferase reporter cDNA was stably expressed in HEK293 cells. This reporter cell line was maintained in Dulbecco's Modified Eagle's medium (DMEM; Gibco) supplemented with 1% penicillin-streptomycin (P/S) solution, 500 μg/mL Zeocin and 10% charcoal/dextran-treated fetal bovine serum (cs-FBS) at 37° C. in a humidified 5% CO2 atmosphere. Another plasmid was constructed in which the human cytomegalovirus promoter in the pcDNA3.1 vector directs the expression of the cDNA encoding a fusion protein comprised of the DNA binding domain from the Gal4 transcription factor fused to the ligand binding domain from human FXR.
The day prior to transfection, the reporter cells in culture are detached from the plate with trypsin and plated into a T75 flask at a sufficient density to achieve approximately 90% confluence the next morning. The transfection reagents are prepared by separately diluting 25 μg of the pcDNA3.1-Gal4-FXR plasmid into 1.87 mL of Opti-MEM (Thermo-Fisher), and 40 μL of Lipofectamine 2000 (Thermo-Fisher) into 1.87 mL of Opti-MEM, and then adding the diluted DNA solution into the diluted Lipofectamine 2000 solution and incubating at room temperature for 15-20 minutes. The mixture is further diluted with 10 mL of a solution comprised of DMEM, 10% cs-FBS, and 1% P/S immediately prior to transferring to the cells. The maintenance culture media is aspirated from the cells and the final transfection mixture is added before the cells are incubated overnight at 37° C. in a humidified 5% CO2 atmosphere. This protocol can be scaled up, and the transiently transfected cells can be cryopreserved in an assay-ready format.
For compound testing, 100 nL of the compounds (serial dilutions in DMSO) are dispensed with an Echo acoustic dispenser (Labcyte) into the wells of a Corning/Costar clear bottom 384-well white plate. The transfected cells are harvested, counted, and diluted such that 10-25,000 cells in 25 μL are plated into each well of the 384-well compound assay plate. The compound-treated cells are incubated overnight at 37° C. in a humidified 5% CO2 atmosphere.

For `O=C(O)c1ccc2nc(N3CCC4(C=C(c5c(-c6ccccc6C(F)(F)F)noc5C5CC5)C4)CC3)cnc2c1` [Example 101, 2-(2-(5-Cyclopropyl-3-(2-(trifluoromethyl)phenyl)isoxazol-4-yl)-7-azaspiro[3.5]non-1-en-7-yl)quinoxaline-6-carboxylic acid], a half-maximal effect (EC50) was put at 17 nM. As for `CCOC(=O)c1cc(F)c2nc(N3[C@@H]4CC[C@H]3C[C@@]3(COC(c5c(-c6c(Cl)cccc6Cl)noc5C5CC5)O3)C4)sc2c1` (stereo partly drawn) [Example 40, Ethyl 2-((1R,3S,5S)-2′-(5-cyclopropyl-3-(2,6-dichlorophenyl)isoxazol-4-yl)-8-azaspiro[bicyclo[3.2.1]octane-3,4′-[1,3]dioxolan]-8-yl)-4-fluorobenzo[d]thiazole-6-carboxylate], the figure is 3400 nM; as for `O=C(O)c1cc2ccc(N3CCC4(C=C(c5c(-c6c(Cl)cccc6Cl)noc5C5CC5)C4)CC3)cc2cn1` [Example 129, 7-(2-(5-Cyclopropyl-3-(2,6-dichlorophenyl)isoxazol-4-yl)-7-azaspiro[3.5]non-1-en-7-yl)isoquinoline-3-carboxylic acid], 341 nM.

For the compound `O=C(O)c1cc2ccc(N3CCC4(C=C(c5c(-c6ccccc6C(F)(F)F)noc5C5CC5)C4)CC3)cc2nn1` [Example 54, 7-(2-(5-Cyclopropyl-3-(2-(trifluoromethyl)phenyl)isoxazol-4-yl)-7-azaspiro[3.5]non-1-en-7-yl)cinnoline-3-carboxylic acid], the response was half-maximal at 177 nM (EC50). As for `O=C(O)c1cc2ccc(N3CCC4(C=C(c5c(-c6ccncc6Cl)noc5C5CC5)C4)CC3)cc2nn1` [Example 80, 7-(2-(3-(3-Chloropyridin-4-yl)-5-cyclopropylisoxazol-4-yl)-7-azaspiro[3.5]non-1-en-7-yl)cinnoline-3-carboxylic acid], the figure is 1360 nM; as for `CC(C)c1onc(-c2c(Cl)cncc2Cl)c1C1=CC2(CCN(c3nc4c(F)cc(C(=O)O)cc4s3)CC2)C1` [Example 52, 2-(2-(3-(3,5-Dichloropyridin-4-yl)-5-isopropylisoxazol-4-yl)-7-azaspiro[3.5]non-1-en-7-yl)-4-fluorobenzo[d]thiazole-6-carboxylic acid], 58 nM; as for `O=C(O)c1cnc(N2CCC3(C=C(c4c(-c5ccccc5C(F)(F)F)noc4C4CC4)C3)CC2)cc1C(F)(F)F` [Example 163, 6-(2-(5-Cyclopropyl-3-(2-(trifluoromethyl)phenyl)isoxazol-4-yl)-7-azaspiro[3.5]non-1-en-7-yl)-4-(trifluoromethyl)nicotinic acid], 344 nM. As for `CS(=O)(=O)NC(=O)c1ccc2cc(N3CCC4(C=C(c5c(-c6c(Cl)cccc6Cl)noc5C5CC5)C4)CC3)ccc2n1` [Example 194, 6-(2-(5-Cyclopropyl-3-(2,6-dichlorophenyl)isoxazol-4-yl)-7-azaspiro[3.5]non-1-en-7-yl)-N-(methylsulfonyl)quinoline-2-carboxamide], the figure is 255 nM; as for `O=C(O)c1cc(F)c2nc(N3[C@@H]4CC[C@H]3CC3(C=C(c5c(-c6c(Cl)cccc6Cl)noc5C5CC5)C3)C4)sc2c1` (mixture of isomers) [Example 11, 2-(3′-(5-Cyclopropyl-3-(2,6-dichlorophenyl)isoxazol-4-yl)-8-azaspiro[bicyclo[3.2.1]octane-3,1′-cyclobutan]-2′-en-8-yl)-4-fluorobenzo[d]thiazole-6-carboxylic acid], 189 nM.

Regarding `CS(=O)(=O)NC(=O)c1cc(OC(F)F)c2cc(N3CCC4(C=C(c5c(-c6ncccc6Cl)noc5C5CC5)C4)CC3)ccc2n1` [Example 190, 6-(2-(3-(3-Chloropyridin-2-yl)-5-cyclopropylisoxazol-4-yl)-7-azaspiro[3.5]non-1-en-7-yl)-4-(difluoromethoxy)-N-(methylsulfonyl)quinoline-2-carboxamide], it took 168 nM to reach a half-maximal effect (EC50).

For orientation: EC50 means the concentration that produces a half-maximal response.

For the origin of these results see patent US11078198B2 (BRISTOL-MYERS SQUIBB COMPANY, priority 2017, dated 2021).
